The record followed here is patent publication US9926319B2, “Pyridyl piperidines” (MERCK PATENT GMBH, priority 2014, dated 2018).

One data set concerns Wnt pathway. The data set can be described thus: Cellular assay for Wnt pathway activity (luciferase reporter cell based assay). To be noted: HEK293 luciferase reporter cell line (ER-DSH, TCF dependent promoter), induced with estrogen (1 μM), read-out: 7df3 IC50.
Data set [1] in a line: CLint (intrinsic clearance) assay, microsomal incubation. It counts as in vitro ADME, Human. The settings on record: NADPH, 37° C., up to 30 min; for microsomal CLint at 0.8 μM: human, liver microsomes, pH 7.4, human liver microsomes 0.5 mg/mL protein. As to the method:
2. CLint (Intrinsic Clearance) Assay
A Tecan Genesis workstation (RWS ASY 150/8) was used to perform the microsomal incubations. Analysis was carried out using a Waters ACQUITY UPLC system coupled to an ABSciex API3000 mass spectrometer. Data analysis was performed using Assay Explorer (Symyx).
0.1 M potassium phosphate buffer pH 7.4 containing 1 mM MgCl2
15 mM NADPH in phosphate buffer
5.0 mg protein/mL liver microsomes in phosphate buffer
Each experiment consists of 12 test and 2 reference compounds. The reference compounds are incubated as a cocktail.
Dilution of test compounds was done in 2 steps from a 10 mM DMSO stock solution. First 4 μL stock solution was added to 196 μL of 20% DMSO in potassium phosphate buffer pH 7.4. In a second step 10 μL of the first dilution were added to […] potassium phosphate buffer and 100 μL internal standard solution to a final concentration of 0.8 μM. 100 μL of the final compound dilution were aliquoted into a 96 deep well plate. 12.5 μL liver microsomes were added to each well (0.5 mg/mL final protein concentration) and the samples preincubated for 5 min at 37° C. and 800 rpm agitation.
After the preincubation, 250 μL cold acetonitrile were added to the 0 min samples to prevent a reaction. Following this, 12.5 μL NADPH solution were added to all wells to start the incubation, with the exception of the 0 min and 30 min controls without cofactor, where the NADPH was substituted for phosphate buffer.
The incubations were stopped after 5, 10, 20 and 30 min by adding 250 μL cold acetonitrile to the individual wells.
The quenched samples were then centrifuged at 4000 g for 1 h at 4° C. 100 μL of the supernatant were transferred into 96 well plates for analysis.
The metabolic stability of each compound was determined by measurement of the change in LC-MS/MS peak area over time. Assay Explorer software was used to automatically calculate the slope k of the decline. The intrinsic clearance (CLint) of each compound was then calculated according to the formula: CLint(μL/min/mg protein)=k1000/protein concentration.
CLint is shown for each compound in Table 3 below.
(Microsomes from liver hold many membrane-bound enzymes, among them those of drug oxidation.)

Where two headings read alike, the source gives them in different places.

For orientation: IC50 means the concentration that inhibits the measured activity by half. A word on the microsomal CLint: it is the capacity of the preparation to metabolise the compound, expressed as a volume cleared per time. In the case of `CC(C)n1cc(-c2ccc(-c3cncc(Cl)c3N3CCC4(CC3)CNC(=O)O4)cc2)cn1` [Example 36, 8-{3-Chloro-5-[4-(1-isopropyl-1H-pyrazol-4-yl)-phenyl]-pyridin-4-yl}-1-oxa-3,8-diaza-spiro[4.5]decan-2-one], in the data set with Wnt pathway (24 h), the IC50 is 22 nM. In data set [1], the microsomal CLint at 0.8 μM is 40 µL/min/mg.
Regarding `CC(C)n1cc(-c2ccc(-c3cncc(C(F)(F)F)c3N3CCC4(CC3)CNC(=O)O4)cc2)cn1` [Example 38, 8-{3-[4-(1-Isopropyl-1H-pyrazol-4-yl)-phenyl]-5-trifluoromethyl-pyridin-4-yl}-1-oxa-3,8-diaza-spiro[4.5]decan-2-one], the IC50 with Wnt pathway (24 h) was 33 nM. In addition, the microsomal CLint at 0.8 μM in data set [1] was 16 µL/min/mg.
In the same order, the values of `CS(=O)(=O)CCn1cc(-c2ccc(-c3cncc(Cl)c3N3CCC4(CC3)CNC(=O)O4)cc2)cn1` [Example 39, 8-(3-Chloro-5-{4-[1-(2-methanesulfonyl-ethyl)-1H-pyrazol-4-yl]-phenyl}-pyridin-4-yl)-1-oxa-3,8-diaza-spiro[4.5]decan-2-one] are 14 nM and 12 µL/min/mg.
In the same order, the values of `N#CCCn1cc(-c2ccc(-c3cncc(Cl)c3N3CCC4(CC3)CNC(=O)O4)cc2)cn1` [Example 40, 3-(4-{4-[5-Chloro-4-(2-oxo-1-oxa-3,8-diaza-spiro[4.5]dec-8-yl)-pyridin-3-yl]-phenyl}-pyrazol-1-yl)-propionitrile] are 3.9 nM and 61 µL/min/mg.
In the same order, the values of `CN1c2ccc(-c3cncc(Cl)c3N3CCC4(CC3)C[C@@H](C(F)(F)F)NC4=O)cc2CS1(=O)=O` [Example 42, (S)-8-[3-Chloro-5-(1-methyl-2,2-dioxo-2,3-dihydro-1H-2l6-benzo[c]isothiazol-5-yl)-pyridin-4-yl]-3-trifluoromethyl-2,8-diaza-spiro[4.5]decan-1-one] are 2.4 nM and 57 µL/min/mg.
Consider `CC(C)(O)Cn1cc(-c2ccc(-c3cncc(Cl)c3N3CCC4(CC3)CNC(=O)O4)cc2)cn1` [Example 43, 8-(3-Chloro-5-{4-[1-(2-hydroxy-2-methyl-propyl)-1H-pyrazol-4-yl]-phenyl}-pyridin-4-yl)-1-oxa-3,8-diaza-spiro[4.5]decan-2-one], for which, in the data set on Wnt pathway (24 h), the IC50 is 50 nM. In addition, the intrinsic metabolic clearance (microsomal CLint) at 0.8 μM in data set [1] was 11 µL/min/mg.
In the same order, the values of `CN1c2ccc(-c3cncc(Cl)c3N3CCC(N)(C(N)=O)CC3)cc2CS1(=O)=O` [Example 44, 4-Amino-5′-chloro-3′-(1-methyl-2,2-dioxo-2,3-dihydro-1H-2l6-benzo[c]isothiazol-5-yl)-3,4,5,6-tetrahydro-2H-[1,4′]bipyridinyl-4-carboxylic acid amide] are 5.1 nM and under 10 µL/min/mg.
In the same order, the values of `O=C1NCC2(CCN(c3c(Cl)cncc3-c3ccc4c(c3)CS(=O)(=O)C4)CC2)O1` [Example 48, 8-[3-Chloro-5-(2,2-dioxo-2,3-dihydro-1H-2l6-benzo[c]thiophen-5-yl)-pyridin-4-yl]-1-oxa-3,8-diaza-spiro[4.5]decan-2-one] are 42 nM and 23 µL/min/mg.
In the same order, the values of `O=C1NCC2(CCN(c3c(Cl)cncc3-c3ccc4cnccc4c3)CC2)O1` [Example 50, 8-(3-Chloro-5-isoquinolin-6-yl-pyridin-4-yl)-1-oxa-3,8-diaza-spiro[4.5]decan-2-one] are 23 nM and 28 µL/min/mg.
`CCC1=NNC(=O)C12CCN(c1c(Cl)cncc1-c1ccc3c(c1)CS(=O)(=O)N3C)CC2` [Example 52, 8-[3-Chloro-5-(1-methyl-2,2-dioxo-2,3-dihydro-1H-2l6-benzo[c]isothiazol-5-yl)-pyridin-4-yl]-4-ethyl-2,3,8-triaza-spiro[4.5]dec-3-en-1-one]: the IC50 with Wnt pathway (24 h) came out at 0.02 nM. Further, in data set [1], the microsomal CLint at 0.8 μM came to 70 µL/min/mg.
In the same order, the values of `CN1c2ccc(-c3cncc(Cl)c3N3CCC4(CC3)C[C@H](C(F)(F)F)NC4=O)cc2CS1(=O)=O` [Example 53, (R)-8-[3-Chloro-5-(1-methyl-2,2-dioxo-2,3-dihydro-1H-2l6-benzo[c]isothiazol-5-yl)-pyridin-4-yl]-3-trifluoromethyl-2,8-diaza-spiro[4.5]decan-1-one] are 15 nM and 42 µL/min/mg.
In the same order, the values of `CCC1=NNC(=O)C12CCN(c1c(Cl)cncc1-c1ccc(-c3cnn(C)c3)cc1)CC2` [Example 54, 8-{3-Chloro-5-[4-(1-methyl-1H-pyrazol-4-yl)-phenyl]-pyridin-4-yl}-4-ethyl-2,3,8-triaza-spiro[4.5]dec-3-en-1-one] are 0.92 nM and 82 µL/min/mg.
In the same order, the values of `O=C1NCC2(CCN(c3c(Cl)cncc3-c3ccc(-c4cnn(C5COC5)c4)cc3)CC2)O1` [Example 55, 8-{3-Chloro-5-[4-(1-oxetan-3-yl-1H-pyrazol-4-yl)-phenyl]-pyridin-4-yl}-1-oxa-3,8-diaza-spiro[4.5]decan-2-one] are 20 nM and 23 µL/min/mg.
In the case of `Cn1cc(-c2ccc(-c3cncc(Cl)c3N3CCC4(CC3)C(=O)NN=C4C(F)(F)F)cc2)cn1` [Example 59, 8-{3-Chloro-5-[4-(1-methyl-1H-pyrazol-4-yl)-phenyl]-pyridin-4-yl}-4-trifluoromethyl-2,3,8-triaza-spiro[4.5]dec-3-en-1-one], the IC50 in the data set with Wnt pathway (24 h) turned out to be 17 nM. In addition, in data set [1], the microsomal CLint at 0.8 μM turned out to be 43 µL/min/mg.
In the same order, the values of `O=C1NCC2(CCN(c3c(Cl)cncc3-c3ccc(-c4cnn(C5CC5)c4)cc3)CC2)O1` [Example 60, 8-{3-Chloro-5-[4-(1-cyclopropyl-1H-pyrazol-4-yl)-phenyl]-pyridin-4-yl}-1-oxa-3,8-diaza-spiro[4.5]decan-2-one] are 6.1 nM and 23 µL/min/mg.
With `Cn1ncc2cc(-c3cncc(Cl)c3N3CCC4(CC3)C(=O)NN=C4C(F)(F)F)ccc21` [Example 61, 8-[3-Chloro-5-(1-methyl-1H-indazol-5-yl)-pyridin-4-yl]-4-trifluoromethyl-2,3,8-triaza-spiro[4.5]dec-3-en-1-one], the IC50 in the data set with Wnt pathway (24 h) is 17 nM. In data set [1], the intrinsic metabolic clearance (microsomal CLint) at 0.8 μM is 38 µL/min/mg.
In the same order, the values of `O=C1NCC2(CCN(c3c(Cl)cncc3-c3ccc(-c4cnn([C@H]5CCC[C@@H]5O)c4)cc3)CC2)O1` [Example 62, 8-(3-Chloro-5-{4-[1-((1S,2S)-2-hydroxy-cyclopentyl)-1H-pyrazol-4-yl]-phenyl}-pyridin-4-yl)-1-oxa-3,8-diaza-spiro[4.5]decan-2-one] are 34 nM and 37 µL/min/mg.
In the same order, the values of `O=C1NCC2(CCN(c3c(Cl)cncc3-c3ccc(-c4cnn([C@@H]5CCC[C@H]5O)c4)cc3)CC2)O1` [Example 63, 8-(3-Chloro-5-{4-[1-((1R,2R)-2-hydroxy-cyclopentyl)-1H-pyrazol-4-yl]-phenyl}-pyridin-4-yl)-1-oxa-3,8-diaza-spiro[4.5]decan-2-one] are 30 nM and 29 µL/min/mg.
In the same order, the values of `O=C1Cc2ccc(-c3cncc(Cl)c3N3CCC4(CCNC4=O)CC3)cc2N1` [Example 64, 8-[3-Chloro-5-(2-oxo-2,3-dihydro-1H-indol-6-yl)-pyridin-4-yl]-2,8-diaza-spiro[4.5]decan-1-one] are 19 nM and 49 µL/min/mg.
Regarding `CN1C(=O)Cc2cc(-c3cncc(Cl)c3N3CCC4(CC3)CC(=O)NC4=O)ccc21` [Example 65, 8-[3-Chloro-5-(1-methyl-2-oxo-2,3-dihydro-1H-indol-5-yl)-pyridin-4-yl]-2,8-diaza-spiro[4.5]decane-1,3-dione], in the data set on Wnt pathway (24 h), the IC50 stood at 21 nM. Also, the microsomal CLint at 0.8 μM in data set [1] was under 10 µL/min/mg.
In the same order, the values of `Cn1ncc2ccc(-c3cncc(Cl)c3N3CCC4(CC3)CC(=O)NC4=O)cc21` [Example 66, 8-[3-Chloro-5-(1-methyl-1H-indazol-6-yl)-pyridin-4-yl]-2,8-diaza-spiro[4.5]decane-1,3-dione] are 15 nM and under 10 µL/min/mg.
Consider `Cn1cc(-c2ccc(-c3cncc(Cl)c3N3CCC4(CC3)C(=O)Nc3cccnc34)cc2)cn1` [Example 68], for which the IC50 with Wnt pathway (24 h) was 1.4 nM. Further, in data set [1], the intrinsic clearance (microsomal CLint) at 0.8 μM stood at 65 µL/min/mg.
In the same order, the values of `Cn1cc(-c2ccc(-c3cncc(Cl)c3N3CCC4(CC3)C(=O)Nc3ccccc34)cc2)cn1` [Example 69] are 1.1 nM and 89 µL/min/mg.
In the case of `Cn1ncc2cc(-c3cncc(Cl)c3N3CCC4(CC3)C(=O)NCC4O)ccc21` (stereo not drawn) [Example 70, 8-[3-Chloro-5-(1-methyl-1H-indazol-5-yl)-pyridin-4-yl]-4-hydroxy-2,8-diaza-spiro[4.5]decan-1-one], the IC50 with Wnt pathway (24 hours) is 20 nM. Besides, the “Human Clint” value in data set [1] (human liver microsomes 0.5 mg/mL protein) came out at 24 µL/min/mg.
